Data on one molecule can be found in patent US20100179188A1, “NITROXIDE RADICAL AS TREATMENT FOR NEURODEGENERATION” (Office of Technology Transfer, NIH, priority 2007, published 2010).

The test system of one test is TfR1. The test is described as follows: Western blot of TfR1 in IRP2−/− embryonic fibroblasts. The class given is cell-based, mouse. Particulars: 0.3 and 1.0 mM, 16 h, with or without FAC. As to the method: Cells: Embryonic fibroblasts of 13-day old embryos were isolated from wild type, IRP1−/− mice and IRP2−/− mice as described in LaVaute et al. supra. Myc-tagged HEK 293 Tet-on cell line, in which IRP2 expression was inducible, was prepared and cultured as described Bourdon et al., Blood Cells Mol Dis, 31, 247-255 (2003). Erythroblasts were harvested from bone marrow and purified as described in Cooperman et al., Blood, 106, 1084-1091 (2005).
Western blotting and antibodies: Protein analysis was carried out as described in LaVaute et al., supra. Equal amounts of protein (20-40 μg/lane) were separated on 13% SDSPAGE and transferred to nitrocellulose membranes. The membrane was blocked with 5% non-fat milk, 0.1% Triton X-100 in PBS and probed at RT in the same blocking buffer. IRP1 antibody was prepared against purified hIRP1 and used at 1:5000 dilution. L-ferritin antibody was raised in rabbit from L-ferritin protein purified from mouse livers. […]
To study the effect of Tempo1 on the IRE-binding activity of IRP1, IRP2−/− embryonic fibroblasts that were maintained in culture supplemented with 0, 0.3 and 1.0 mM Tempo1, with or without ferric ammonium citrate (FAC), for 16 h. […] Quantification was performed with the IQMac (IRP1 activity) or NIH Image (protein levels) program. Error bars represent the standard deviation calculated from the results of two different sets of experiments.
Background: Immunoblotting shows a protein as a band on a membrane.

A further test relates to IRP1. The experiment in a line: Western blot of IRP1 protein in brain-region lysates of IRP2−/− mice. The test is classed as in vivo. The conditions noted are these: cerebellum, brain-stem and forebrain of IRP2−/− mice, Tempo1 diet vs control diet. As to the method: Diet: The mice were weaned 3-4 weeks after their birth. Immediately after weaning, mice were maintained on either a Tempo1-supplemented or control diet. In the Tempo1-supplemented diet, powdered Tempo1 was uniformly mixed with bacon-flavored mouse chow by a “cold press” technique (Bio-Serv, Frenchtown, N.J., USA) at a concentration of 10 mg/g of food. Bacon-flavored chow without Tempo1 was used as the control diet.
Tissue and lysate preparation: Animals were euthanized and tissues were frozen in liquid nitrogen immediately after harvesting, and stored at −80° C. under argon. Experiments were performed on tissues that were pulverized in liquid N2-cooled mortars in an anaerobic chamber, and then lysed in lysis buffer that was deaerated by cyclic freezethaw and air-removal with argon. […]
Lysates made from various brain regions of IRP2−/− mice that were maintained on a control diet or on a Tempo1-supplemented diet were analyzed for IRE binding activity of IRP1 and for TfR1, IRP1, and actin protein levels by gel-shift assay and Western blot. […] FIG. 3b is a quantification of the results as intensity of the bands relative to the control, represented here as 100%. Quantification was performed with the IQMac (IRP1 activity) or NIH Image (protein levels) program. Error bars represent the standard deviation calculated from the results of two different sets of animals.

For `CC1(C)CC(O)CC(C)(C)N1[O]` [Tempo1], the TfR1 levels entry with TfR1 was “increased”. The IRP1 protein levels entry in the test with IRP1 is “did not significantly change”.
